Reference: paper PMC9458935, “Modulation of type 1 cannabinoid receptor activity by cannabinoid by-products from Cannabis sativa and non-cannabis phytomolecules” (Frontiers in Pharmacology, 2022)
Where two headings read alike, the source gives them in different places.

Key:
hCB1R [1] = target: T1, hCB1R (Homo sapiens, UniProt P21554); experiment: biochemical; assay type: binding
hCB1R [2] = target: T1, hCB1R; experiment: cell-based; assay type: cell-based
hCB1R [3] = target: T1, hCB1R; experiment: cell-based; assay type: cell-based; remark: listed apart in the source
male C57BL/6 mice [4] = experiment: Catalepsy, bar holding assay; assay type: in vivo, mouse; settings: 5 min post-injection; for effect on ∆9-THC-dependent catalepsy: 10 mg/kg phytomolecule + 10 mg/kg ∆9-THC i.p.; for catalepsy: 10 mg/kg i.p., male mice
Description: (§1) Male C57BL/6 mice between 8 and 12 weeks of age were used for these studies. Animals were group housed at the Laboratory Animal Services Unit (LASU) at the University of Saskatchewan (3 animals/cage) with a standard 12:12 light-dark cycle, ad libitum access to food and water, and environmental enrichment. Compounds were prepared in the vehicle [ethanol and cremophor in saline (1:1:8)] and administered intraperitoneally (i.p.). Catalepsy was assessed in the bar holding assay 5 min after compound administration with animals placed so that their forepaws clasped a 0.7-cm ring clamp 4.5 cm above the surface of the testing space ([Garai et al., 2020]). The length of time the ring was held was recorded up to 60 s (i.e., percent maximum possible effect [MPE] 60 s) with the trial ending if the mouse turned its head or body or made three consecutive escape attempts. Body temperature was measured 15 min after compound administration by using a rectal thermometer. Anti-nociceptive effects were measured in warm water (52 ± 2°C) using the tail-flick test 20 min after compound administration to a maximum of 20 s (i.e., percent maximum possible effect [MPE] 20 s). Compounds were administered at the doses indicated. Experimenters were blinded to treatment for all behavioral assessments and analyses. Animals were purchased, rather than bred, to reduce animal numbers. In all cases, experiments were performed with the approval of the University Animal Care Committee (UACC) at the University of Saskatchewan and in keeping with the guidelines of the Canadian Council on Animal Care (CCAC).

male C57BL/6 mice [5] = experiment: Body temperature, rectal thermometer; assay type: in vivo, mouse; settings: 15 min post-injection; for effect on ∆9-THC-dependent change of body temperature: 10 mg/kg phytomolecule + 10 mg/kg ∆9-THC i.p.; for body temperature: 10 mg/kg i.p., male mice
Description: as §1

male C57BL/6 mice [6] = experiment: Anti-nociception, warm water tail-flick test; assay type: in vivo, mouse; settings: 20 min post-injection; for effect on ∆9-THC-dependent anti-nociception, tail-flick: 10 mg/kg phytomolecule + 10 mg/kg ∆9-THC i.p.; for anti-nociceptive effect, tail-flick: 10 mg/kg i.p., male mice
Description: as §1

[7] = CHO-K1; read-out: cAMP inhibition Emax
[8] = co-treatment with 100 nM ∆9-THC
[9] = CHO-K1; read-out: βarrestin2 recruitment Emax
[10] = compound alone; 10 µM forskolin, 90 min; value with 95% CI; read-out: cAMP inhibition EC50
[11] = compound alone; 90 min; value with 95% CI; read-out: βarrestin2 recruitment EC50
[12] = CHO-K1, read-out: cAMP inhibition Emax
[13] = CHO-K1, read-out: βarrestin2 recruitment Emax

T1 sequence (P21554 whole entry): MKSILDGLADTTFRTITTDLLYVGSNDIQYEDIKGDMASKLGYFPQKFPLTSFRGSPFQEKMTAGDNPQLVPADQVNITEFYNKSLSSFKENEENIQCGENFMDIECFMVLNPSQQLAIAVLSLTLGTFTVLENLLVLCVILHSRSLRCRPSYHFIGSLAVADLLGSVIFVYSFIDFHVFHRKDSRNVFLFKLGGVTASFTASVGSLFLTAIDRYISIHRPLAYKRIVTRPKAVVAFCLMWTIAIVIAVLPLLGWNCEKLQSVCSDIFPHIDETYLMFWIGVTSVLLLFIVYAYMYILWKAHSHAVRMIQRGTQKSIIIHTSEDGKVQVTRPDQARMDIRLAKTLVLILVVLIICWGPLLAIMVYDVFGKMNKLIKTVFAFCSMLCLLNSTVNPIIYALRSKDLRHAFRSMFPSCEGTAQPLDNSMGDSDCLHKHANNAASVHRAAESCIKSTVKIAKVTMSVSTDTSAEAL

| Compound | Ki (hCB1R [1]) [µM] | [3H]CP55,940 Emin (hCB1R [1]) [%] | effect on [3H]CP55,940 displacement by 100 nM ∆9-THC (hCB1R [1]) | Emax (hCB1R [2]; [7]) [%] | effect on cAMP inhibition by 100 nM ∆9-THC (hCB1R [2]; [8]) | Emax (hCB1R [3]; [9]) [%] | effect on cAMP inhibition by 100 nM ∆9-THC (hCB1R [2]) | Emax (hCB1R [2]; [12]) [%] | Emax (hCB1R [3]; [13]) [%] | catalepsy (male C57BL/6 mice [4]) | body temperature (male C57BL/6 mice [5]) | anti-nociceptive effect, tail-flick (male C57BL/6 mice [6]) | other results |
| --- | --- | --- | --- | --- | --- | --- | --- | --- | --- | --- | --- | --- | --- |
| O=C(/C=C/C=C/c1ccc2c(c1)OCO2)N1CCCCC1 [Piperine, piperine] | > 10 | 37 ± 2.8 | did not significantly alter [^3H]CP55,940 displacement | 5.5 ± 0.63 | did not change the cAMP inhibitory effects of 100 nM ∆^9-THC | 7.9 ± 0.97 |  |  |  |  |  |  | EC50 (hCB1R [2]): > 10 µM; EC50 (hCB1R [3]): > 10 µM |
| O=c1c(O)c(-c2ccc(O)c(O)c2)oc2cc(O)cc(O)c12 [Quercetin, quercetin] |  |  |  |  |  |  |  |  |  |  |  |  | effect on ∆9-THC-dependent catalepsy (male C57BL/6 mice [4]): capable of blocking ∆^9-THC’s effects on catalepsy; effect on ∆9-THC-dependent change of body temperature (male C57BL/6 mice [5]): capable of blocking ∆^9-THC’s effects on catalepsy and body temperature; effect on ∆9-THC-dependent anti-nociception, tail-flick (male C57BL/6 mice [6]): blocked ∆^9-THC’s effect in the nociception test |
| COc1cc(/C=C/C(=O)CC(=O)/C=C/c2ccc(O)c(OC)c2)ccc1O [Curcumin, curcumin] | > 10 | 100 ± 2.0 | did not significantly alter [^3H]CP55,940 displacement | 6.2 ± 0.76 | inhibited the activity of 100 nM ∆^9-THC in a concentration-dependent manner | 8.9 ± 2.2 |  |  |  |  |  |  | EC50 (hCB1R [2]; [10]): > 10 µM; EC50 (hCB1R [3]; [11]): > 10 µM; effect on ∆9-THC-dependent catalepsy (male C57BL/6 mice [4]): capable of blocking ∆^9-THC’s effects on catalepsy; effect on ∆9-THC-dependent change of body temperature (male C57BL/6 mice [5]): capable of blocking ∆^9-THC’s effects on catalepsy and body temperature; effect on ∆9-THC-dependent anti-nociception, tail-flick (male C57BL/6 mice [6]): blocked ∆^9-THC’s effect in the nociception test |
| CCCCCc1cc(O)c2c(c1)OC(C)(C)[C@@H]1CC=C(C)C[C@@H]21 [∆^8-THC] |  | 30 ± 5.0 |  |  |  |  | neither ∆^8-THC nor CBN produced a significant change in cAMP inhibition | 56 ± 9.6 | 21 ± 1.8 | did not produce catalepsy | did not produce catalepsy or reduce body temperature | produced an anti-nociceptive effect that was not different from ∆^9-THC |  |
| CCCCCc1cc(O)c2c(c1)OC(C)(C)C1=C2CC(C)CC1 (centres unmarked) [∆^6a,10a-THC] |  |  |  |  |  |  |  |  |  | did not produce catalepsy | did not produce catalepsy or reduce body temperature | did not produce such effect |  |
| CCCCCCC(C)(C)c1ccc(C2CC(O)CCC2CCCO)c(O)c1 (centres unmarked) [CP55,940, reference compound] |  | 1.0 ± 4.7 |  |  |  |  |  | 100 ± 6.2 | 100 ± 3.3 |  |  |  |  |
| CCCCCc1cc(O)c2c(c1)OC(C)(C)c1ccc(C)cc1-2 [CBN, cannabinol] | 0.14 | 71 ± 3.1 |  |  |  |  | neither ∆^8-THC nor CBN produced a significant change in cAMP inhibition | 64 ± 4.6 | 6.9 ± 0.96 | did not produce catalepsy | did not produce catalepsy or reduce body temperature | did not produce such effect | EC50 (hCB1R [2]): 0.049 µM; fold less potent than CP55,940 in cAMP inhibition (hCB1R [2]): ~49 x; EC50 (hCB1R [3]): > 10 µM |
| CCCCCCCCCCCCCCCC(=O)NCCO [PEA, palmitoylethanolamide] | > 10 | 46 ± 5.3 | did not significantly alter [^3H]CP55,940 displacement |  |  |  | augmented the activity of 100 nM ∆^9-THC in a concentration-dependent manner | 26 ± 1.8 | 5.6 ± 3.3 |  |  |  | concentration at which [3H]CP55,940 binding was reduced (hCB1R [1]): exceeding 1 μM; concentration at which CB1R- and ∆9-THC-dependent inhibition of cAMP was augmented (hCB1R [2]): approximately 1 μM; type of agonism in cAMP inhibition (hCB1R [2]): weak partial agonist inhibition of cAMP accumulation; concentration at which CB1R- and ∆9-THC-dependent βarrestin2 recruitment was augmented (hCB1R [3]): approximately 1 μM; effect on βarrestin2 recruitment by 100 nM ∆9-THC (hCB1R [3]): slightly increased βarrestin2 recruitment; effect on ∆9-THC-dependent catalepsy (male C57BL/6 mice [4]): capable of blocking ∆^9-THC’s effects on catalepsy; effect on ∆9-THC-dependent change of body temperature (male C57BL/6 mice [5]): capable of blocking ∆^9-THC’s effects on catalepsy and body temperature; effect on ∆9-THC-dependent anti-nociception, tail-flick (male C57BL/6 mice [6]): did not block the effect |
| CCCCCc1cc(O)cc(O)c1 [Olivetol, olivetol] | 0.017 | 57 ± 5.5 | did not significantly alter [^3H]CP55,940 displacement | 5.6 ± 1.6 | did not change the cAMP inhibitory effects of 100 nM ∆^9-THC | 8.3 ± 2.1 |  |  |  |  |  |  | EC50 (hCB1R [2]; [10]): > 10 µM; EC50 (hCB1R [3]; [11]): > 10 µM |
| O=C(O[C@@H]1Cc2c(O)cc(O)cc2O[C@@H]1c1cc(O)c(O)c(O)c1)c1cc(O)c(O)c(O)c1 [Egc G, epigallocatechin gallate] | > 10 | 95 ± 3.4 | augmented the displacement of [^3H]CP55,940 from hCB1R by ∆^9-THC | 5.6 ± 0.52 | inhibited the activity of 100 nM ∆^9-THC in a concentration-dependent manner | 7.2 ± 0.85 |  |  |  |  |  |  | EC50 (hCB1R [2]; [10]): > 10 µM; EC50 (hCB1R [3]; [11]): > 10 µM |
| CCCCCc1cc(O)c2c(c1)OC(C)(C)[C@@H]1CCC(CO)=C[C@@H]21 [11-OH-∆^9-THC] |  | 70 ± 1.7 |  |  |  |  | inhibited the activity of 100 nM ∆^9-THC in a concentration-dependent manner | 28 ± 3.9 | 47 ± 9.4 | equal catalepsy | greater hypothermia | greater hypothermia and anti-nociceptive responses relative to ∆^9-THC | EC50 (hCB1R [2]): 0.011 µM; EC50 (hCB1R [3]): > 10 µM; effect on βarrestin2 recruitment by 100 nM ∆9-THC (hCB1R [3]): elevated βarrestin2 recruitment above the activity of 100 nM ∆^9-THC |
